The record followed here is ChEMBL document CHEMBL4184340, “Fragment-Based Discovery of a Potent, Orally Bioavailable Inhibitor That Modulates the Phosphorylation and Catalytic Activity of ERK1/2” (J Med Chem, 2018).

Data set [1] in a line: in vivo. The conditions noted are these: Balb/c, mouse, iv, 0.5 mg/kg.
Data set [2] is described as follows: in vivo. The conditions noted are these: Balb/c, mouse, iv, 0.5 mg/kg. The source holds these as a separate data set.
The nature of data set [3]: in vivo. To be noted: Balb/c, mouse, po, 5 mg/kg.
A short description of data set [4]: in vivo. The conditions noted are these: Balb/c, mouse, po, 5 mg/kg. This is another data set of the same source.
The nature of data set [5]: in vivo. To be noted: Balb/c, mouse, po, 5 mg/kg. The source holds these as a separate data set.
The next data set can be described thus: in vitro. To be noted: human, Caco-2.

In the case of `Cc1cccc([C@@H](CO)NC(=O)[C@@H](C)N2Cc3ccc(-c4nc(NC5CCOCC5)ncc4Cl)cc3C2=O)c1`, in “in vivo [1]”, the clearance at 24 h worked out at 13 mL/min/kg. The same compound displayed a Vd at 24 h in “in vivo [2]” of 0.6 L/kg. This compound registered an AUC at 24 h in “in vivo [3]” of 3700 ng·h/mL. The half-life at 24 h in “in vivo [4]” is 0.8 h. Besides, the bioavailability at 24 h in the data set “in vivo [5]” was 59%. For the same compound, the Papp at 1 h, 10 µM in the data set “in vitro” was found to be 6.6 ×10⁻⁶ cm/s.

`CC(C)(C)NC(=O)CN1Cc2ccc(-c3nc(NC4CCOCC4)ncc3Cl)cc2C1=O` gave a clearance at 24 h in the data set “in vivo [1]” of 14 mL/min/kg. In the data set “in vivo [2]”, this compound registered a Vd at 24 h of 0.2 L/kg. In the data set “in vivo [3]”, the AUC at 24 h came out at 530 ng·h/mL. This compound gave a half-life at 24 h in “in vivo [4]” of 1 h. In “in vivo [5]”, this compound showed a bioavailability at 24 h of 8%. The compound further returned a Papp at 1 h, 10 µM in the data set “in vitro” of 17 ×10⁻⁶ cm/s.

Regarding `COCCN1Cc2ccc(-c3nc(NC4CCOCC4)ncc3Cl)cc2C1=O`, in the data set “in vivo [1]”, the clearance at 24 h was determined as 17 mL/min/kg. Further, the Vd at 24 h in the data set “in vivo [2]” was 0.05 L/kg. This compound also came in with an AUC at 24 h in “in vivo [3]” of 50 ng·h/mL. The same compound showed a half-life at 24 h in “in vivo [4]” of 1 h. This compound also returned a bioavailability at 24 h in “in vivo [5]” of 1%. The Papp at 1 h, 10 µM in “in vitro” was determined as 19 ×10⁻⁶ cm/s.

`O=C(CN1Cc2ccc(-c3nc(NC4CCOCC4)ncc3Cl)cc2C1=O)NCc1ccccc1` came in with a clearance at 24 h in the data set “in vivo [1]” of 3.8 mL/min/kg. Also, in the data set “in vivo [2]”, the Vd at 24 h is 0.2 L/kg. In the data set “in vivo [3]”, the AUC at 24 h amounted to 6900 ng·h/mL. Further, the half-life at 24 h in the data set “in vivo [4]” is 1 h. In the data set “in vivo [5]”, this compound registered a bioavailability at 24 h of 32%.

As to `CN(C(=O)CN1Cc2ccc(-c3nc(NC4CCOCC4)ncc3Cl)cc2C1=O)C(C)(C)C`, the clearance at 24 h in “in vivo [1]” stood at 4.2 mL/min/kg. Besides, in “in vivo [2]”, the Vd at 24 h stood at 0.1 L/kg. This compound came in with an AUC at 24 h in the data set “in vivo [3]” of 5900 ng·h/mL. The half-life at 24 h in the data set “in vivo [4]” is 0.7 h. The bioavailability at 24 h in the data set “in vivo [5]” was 30%. In “in vitro”, this compound registered a Papp at 1 h, 10 µM of 22 ×10⁻⁶ cm/s.

`C[C@H](C(=O)N[C@H](CO)c1ccccc1)N1Cc2ccc(-c3nc(NC4CCOCC4)ncc3Cl)cc2C1=O` returned a clearance at 24 h in “in vivo [1]” of 23 mL/min/kg. Further, the Vd at 24 h in the data set “in vivo [2]” stood at 1 L/kg. In the data set “in vivo [3]”, this compound displayed an AUC at 24 h of 2600 ng·h/mL. The half-life at 24 h in “in vivo [4]” was 0.7 h. Moreover, the bioavailability at 24 h in “in vivo [5]” turned out to be 70%. In the data set “in vitro”, the Papp at 1 h, 10 µM is 13 ×10⁻⁶ cm/s.

Turning to `O=C(CN1Cc2ccc(-c3nc(NC4CCOCC4)ncc3Cl)cc2C1=O)NC(CO)c1ccccc1` (single isomer, unassigned), in the data set “in vivo [1]”, the clearance at 24 h was determined as 11 mL/min/kg. This compound had a Vd at 24 h in the data set “in vivo [2]” of 0.6 L/kg. Moreover, in the data set “in vivo [3]”, the AUC at 24 h came out at 3000 ng·h/mL. Moreover, the half-life at 24 h in “in vivo [4]” is 3 h. This compound yielded a bioavailability at 24 h in “in vivo [5]” of 41%. Further, in the data set “in vitro”, the apparent permeability coefficient (Papp) at 1 h, 10 µM was found to be 0.7 ×10⁻⁶ cm/s.

For `O=C1c2cc(-c3nc(NC4CCOCC4)ncc3Cl)ccc2CN1CCN1CCOCC1`, the clearance at 24 h in “in vivo [1]” amounted to 15 mL/min/kg. The compound further had a Vd at 24 h in “in vivo [2]” of 0.2 L/kg. The AUC at 24 h in “in vivo [3]” came to 1800 ng·h/mL. This compound also gave a half-life at 24 h in “in vivo [4]” of 2 h. In the data set “in vivo [5]”, the bioavailability at 24 h came to 32%. The compound further yielded a Papp at 1 h, 10 µM in the data set “in vitro” of 40 ×10⁻⁶ cm/s.

In general, clearance refers to a measure of how efficiently the substance is removed, as volume per time. Broadly, the Vd is the apparent volume that relates the amount in the body to the concentration in plasma or blood. Low values mean confinement near the circulation, high ones extensive tissue distribution. The AUC is the area under the concentration-time curve, a measure of exposure. Read a low AUC as low exposure. As usually defined, the half-life is how long it takes for the measured level to halve. Low readings indicate rapid decline, high ones slow decline. Broadly, the bioavailability is dose-corrected exposure relative to a reference, in per cent. The term Papp denotes the rate of passage across a membrane or cell layer, normalised by area and donor concentration.
